In patent US20220380347A1, “INHIBITORS OF CYSTEINE PROTEASES AND METHODS OF USE THEREOF” (Pardes Biosciences, Inc., priority 2020, published 2022):
Where two headings read alike, the source gives them in different places.

Columns and labels:
[1] = target: 229E Mpro (Human coronavirus 229E, UniProt P0C6X1); experiment: 229E Mpro enzymatic assay (standard methods, SARS-CoV2 Mpro assay given as exemplary); type: biochemical, human coronavirus (HCov) 229E
Method in brief: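 Run by standard methods, with the SARS-CoV-2 Mpro protocol given as the model: E. coli-expressed C-His6 protease at 25 nM and substrate at 25 μM (Km 13.5 μM). Buffer pH 7.3 with 5 mM TCEP and 0.1% BSA; % inhibition versus controls fitted to variable-slope log(inhibitor)-response for IC50.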

[2] = target: COVID-19 (nCoV-2019, SARS-CoV2) Mpro (Severe acute respiratory syndrome coronavirus 2, UniProt P0DTD1); experiment: COVID-19 (nCoV-2019, SARS-CoV2) Mpro enzymatic assay; type: biochemical; conditions: 25 nM Mpro, 25 μM substrate; read-out: COVID-19 Mpro IC50
[3] = system: HCoV 229E; experiment: HCoV 229E cytopathic effect (CPE) assay, CellTiter Glo; type: cell-based, human coronavirus (HCov) 229E; conditions: protection of virus-induced CPE
Method: Example 238: Evaluation of antiviral activity of compounds against human coronavirus (HCov) 229E and OC43 in the cytopathic effect (CPE) assays
Compounds were assayed using standard methods against multiple coronaviral strains, including HCoV 229E and OC43 strains. The antiviral activity of compounds was calculated based on the protection of the virus-induced CPE at each concentration normalized by the virus control.
Cytopathic effect (CPE) was measured by CellTiter Glo following the manufacturer's manual. The antiviral activity of compounds was calculated based on the protection of the virus-induced CPE at each concentration normalized by the virus control.
Cell viability was measured with CellTiter Glo.

[4] = system: HCov OC43; experiment: HCoV OC43 cytopathic effect (CPE) assay, CellTiter Glo; type: cell-based, human coronavirus (HCov) OC43
[5] = Betacoronavirus 1, OC43, read-out: OC43 IC50 (uM) MEDIAN, median
[6] = read-out: OC43 IC50 (uM) MEDIAN, median

Sequence of 229E Mpro (P0C6X1 2966-3267): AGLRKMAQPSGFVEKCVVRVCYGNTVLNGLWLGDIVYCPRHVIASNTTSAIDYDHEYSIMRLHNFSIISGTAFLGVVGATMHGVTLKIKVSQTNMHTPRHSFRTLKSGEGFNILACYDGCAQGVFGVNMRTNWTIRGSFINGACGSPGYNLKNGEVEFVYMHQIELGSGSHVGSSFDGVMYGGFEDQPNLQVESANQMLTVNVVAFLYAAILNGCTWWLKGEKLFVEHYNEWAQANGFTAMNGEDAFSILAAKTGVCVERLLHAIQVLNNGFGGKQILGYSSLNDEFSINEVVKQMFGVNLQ

Row | SMILES | EC50 ([1]; 229E Mpro EC50) [nM] | IC50 [2] [nM] | EC50 ([3]; unidentified human coronavirus) [nM] | IC50 [4, 5] [µM] | IC50 [4, 6] [µM] | also measured
1 | CC(C)(C)c1ccc(N(C(=O)[C@H]2C[C@@H](O)CN2C#N)C(C(=O)NC2CCCC2)c2cccnc2)cc1 (single isomer, unassigned) [595 Isomer 1] | < 2000 | 2000 to 10000 | 2000 to 10000 | 2 to 10 | – | –
2 | CC(C)(C)c1ccc(N(C(=O)[C@H]2C[C@@H](O)CN2C#N)C(C(=O)NC2CCOCC2)c2cccnc2)cc1 (single isomer, unassigned) [619 Isomer 1] | < 2000 | < 2000 | 2000 to 10000 | < 2 | – | –
3 | CC(C)(C)c1ccc(N(C(=O)[C@H]2C[C@@H](O)CN2C#N)C(C(=O)NC2CCOCC2)c2cccnc2)cc1 (single isomer, unassigned) [619 Isomer 2] | – | 2000 to 10000 | – | – | 2 to 10 | EC50 ([1]; read-out: 229E Mpro EC50): < 2000 nM; EC50 [3]: < 2000 nM
4 | COCCNC(=O)C(c1cccnc1)N(C(=O)[C@H]1C[C@@H](O)CN1C#N)c1ccc(C(C)(C)C)cc1 (single isomer, unassigned) [627 Isomer 1] | < 2000 | < 2000 | 2000 to 10000 | – | < 2 | –
5 | COCCNC(=O)C(c1cccnc1)N(C(=O)[C@H]1C[C@@H](O)CN1C#N)c1ccc(C(C)(C)C)cc1 (single isomer, unassigned) [627 Isomer 2] | – | 2000 to 10000 | – | – | 10 to 30 | EC50 ([1]; read-out: 229E Mpro EC50): < 2000 nM; EC50 [3]: 2000 to 10000 nM
6 | COCCCNC(=O)C(c1cccnc1)N(C(=O)[C@H]1C[C@@H](O)CN1C#N)c1ccc(C(C)(C)C)cc1 (single isomer, unassigned) [647 Isomer 2] | – | < 2000 | 2000 to 10000 | – | 2 to 10 | EC50 ([1]; read-out: 229E Mpro EC50): < 2000 nM
7 | Cn1cnnc1C(C(=O)NC1CCCCC1)N(C(=O)[C@H]1C[C@@H](O)CN1C#N)c1ccc(C(C)(C)C)cc1 (single isomer, unassigned) [659 Isomer 1] | < 2000 | 2000 to 10000 | < 2000 | – | 10 to 30 | –
8 | Cn1cnnc1C(C(=O)NC1CCCCC1)N(C(=O)[C@H]1C[C@@H](O)CN1C#N)c1ccc(C(C)(C)C)cc1 (single isomer, unassigned) [659 Isomer 2] | – | 2000 to 10000 | – | – | 2 to 10 | EC50 ([1]; read-out: 229E Mpro EC50): < 2000 nM; EC50 [3]: 2000 to 10000 nM
9 | N#CN1C[C@H](O)C[C@@H]1C(=O)N(c1ccc(C2CC2)cc1)C(C(=O)NC1CCCCC1)c1cccnc1 (single isomer, unassigned) [723 Isomer 1] | < 2000 | < 2000 | < 2000 | < 2 | – | –
10 | N#CN1C[C@H](O)C[C@@H]1C(=O)N(c1ccc(C2CC2)cc1)C(C(=O)NC1CCCCC1)c1cccnc1 (single isomer, unassigned) [723 Isomer 2] | 2000 to 10000 | 10000 to 30000 | – | – | 2 to 10 | EC50 [3]: 2000 to 10000 nM
11 | CC(C)(C)c1ccc(N(C(=O)[C@H]2CC(=O)CN2C#N)C(C(=O)NC2CCCCC2)c2cccnc2)cc1 (single isomer, unassigned) [Compound 278 Isomer 2] | – | 2000 to 10000 | 2000 to 10000 | – | 10 to 30 | EC50 ([1]; read-out: 229E Mpro EC50): < 2000 nM
12 | CC1(O)C[C@H](C(=O)N(c2ccc(C(C)(C)C)cc2)C(C(=O)NC2CCCCC2)c2cccnc2)N(C#N)C1 (single isomer, unassigned) [Compound 284 Isomer 2] | < 2000 | < 2000 | < 2000 | – | – | IC50 ([4]; read-out: OC43 IC50 (uM) MEDIAN, median, listed as 284 Isomer 2): < 2 µM
13 | CO[C@@H]1C[C@H](C(=O)N(c2ccc(C(C)(C)C)cc2)C(C(=O)NC2CCCCC2)c2cccnc2)N(C#N)C1 (single isomer, unassigned) [Compound 292 Isomer 2] | – | < 2000 | < 2000 | – | < 2 | EC50 ([1]; read-out: 229E Mpro EC50): < 2000 nM
14 | CO[C@H]1C[C@H](C(=O)N(c2ccc(C(C)(C)C)cc2)C(C(=O)NC2CCCCC2)c2cccnc2)N(C#N)C1 (single isomer, unassigned) [Compound 293 Isomer 1] | < 2000 | < 2000 | < 2000 | – | – | IC50 ([4]; read-out: OC43 IC50 (uM) MEDIAN, median, listed as 293 Isomer 1): < 2 µM
15 | CC(C)(C)O[C@@H]1C[C@H](C(=O)N(c2ccc(C(C)(C)C)cc2)C(C(=O)NC2CCCCC2)c2cccnc2)N(C#N)C1 (single isomer, unassigned) [Compound 299 Isomer 2] | < 2000 | < 2000 | < 2000 | – | – | IC50 ([4]; read-out: OC43 IC50 (uM) MEDIAN, median, listed as 299 Isomer 2): 2 to 10 µM
16 | CC(C)(C)c1ccc(N(C(=O)[C@H]2C[C@H](Oc3ccccc3)CN2C#N)C(C(=O)NC2CCCCC2)c2cccnc2)cc1 (single isomer, unassigned) [Compound 308 Isomer 2] | < 2000 | < 2000 | < 2000 | – | > 30 | –
17 | CC(C)(C)c1ccc(N(C(=O)[C@H]2CCCN2C#N)C(C(=O)NCC2COC2)c2cccnc2)cc1 (single isomer, unassigned) [Compound 419 Isomer 1] | < 2000 | < 2000 | 2000 to 10000 | 2 to 10 | – | –
18 | COC(C)(C)CNC(=O)C(c1cccnc1)N(C(=O)[C@H]1CCCN1C#N)c1ccc(C(C)(C)C)cc1 (single isomer, unassigned) [Compound 427 Isomer 2] | < 2000 | < 2000 | < 2000 | – | – | IC50 ([4]; read-out: OC43 IC50 (uM) MEDIAN, median, listed as 427 Isomer 2): 2 to 10 µM
19 | CN(C)CCNC(=O)C(c1cccnc1)N(C(=O)[C@H]1CCCN1C#N)c1ccc(C(C)(C)C)cc1 (single isomer, unassigned) [Compound 435 Isomer 1] | < 2000 | 2000 to 10000 | 2000 to 10000 | – | – | IC50 ([4]; read-out: OC43 IC50 (uM) MEDIAN, median, listed as 435 Isomer 1): 2 to 10 µM
20 | Cc1c[nH]c2cc(N(C(=O)[C@H]3C[C@@H](O)CN3C#N)C(C(=O)NC3CCC(F)(F)CC3)c3cncc(F)c3)ccc12 (single isomer, unassigned) [Compound 747b Isomer 1] | < 2000 | < 2000 | 2000 to 10000 | < 2 | – | –
21 | N#CN1C[C@H](O)C[C@@H]1C(=O)N(c1ccc2c(c1)NCCC2)C(C(=O)NC1CCCCC1)c1cccnc1 (single isomer, unassigned) [Compound 755 Isomer 1] | < 2000 | < 2000 | < 2000 | < 2 | – | –
22 | N#CN1C[C@H](O)C[C@@H]1C(=O)N(c1ccc2c(c1)NCCC2)C(C(=O)NC1CCCCC1)c1cccnc1 (single isomer, unassigned) [Compound 755 Isomer 2] | 2000 to 10000 | 10000 to 30000 | – | – | 2 to 10 | EC50 [3]: < 2000 nM
23 | N#CN1C[C@H](O)C[C@@H]1C(=O)N(c1ccc(C2CC2)cc1F)C(C(=O)NC1CCCCC1)c1cccnc1 (single isomer, unassigned) [Compound 763 Isomer 2] | 2000 to 10000 | 10000 to 30000 | < 2000 | – | 2 to 10 | –
24 | N#CN1C[C@H](O)C[C@@H]1C(=O)N(c1ccc(C2CC2)c(F)c1)C(C(=O)NC1CCCCC1)c1cccnc1 (single isomer, unassigned) [Compound 767 Isomer 1] | < 2000 | < 2000 | 2000 to 10000 | < 2 | – | –
25 | N#CN1C[C@H](O)C[C@@H]1C(=O)N(c1ccc(C(F)(C(F)(F)F)C(F)(F)F)cc1)C(C(=O)NC1CCCCC1)c1cccnc1 (single isomer, unassigned) [Compound 779 Isomer 1] | < 2000 | < 2000 | 2000 to 10000 | < 2 | – | –
26 | N#CN1C[C@H](O)C[C@@H]1C(=O)N(c1ccc(S(F)(F)(F)(F)F)cc1)C(C(=O)NC1CCCCC1)c1cccnc1 (single isomer, unassigned) [Compound 791 Isomer 2] | – | 2000 to 10000 | < 2000 | – | < 2 | EC50 ([1]; read-out: 229E Mpro EC50): < 2000 nM
